In brackets after ≈: the same amount, converted by molar mass. Like-named read-outs stand apart in the source and are kept apart here.
Columns and labels:
HIV = experiment: microbe, parasite or virus in culture; format: cell-based
Procedure: Anti-HIV activity tests in vitro of the compounds according to the present invention were performed as described in J. Med. Chem, 34, 357, 1991. Inhibition by the compounds of virus-induced cytotoxic effect in MT-4 cells was measured as follows.
(§1) MT-4 cells were suspended in culture media at 2.5×10^5 cells/ml and infected with 1000 CCID50 (50% cell culture infective dose) of HIV. Immediately after virus infection, 100 μl of cell suspension was brought into each well of a flat-bottomed microtitray containing various concentrations of the test compounds. After 4 or 5 days incubation at 37° C., efficacy of the compounds was determined by the MTT method. Cytotoxicity of the compounds was assessed in parallel with their antiviral activity, based on viability of mock-infected host cells as determined by the MTT method.

mock-infected MT-4 cells = experiment: Cytotoxicity based on viability of mock-infected host cells (MTT method); format: cell-based; conditions: mock-infected MT-4 cells, MTT method, 4 or 5 days at 37° C.
Procedure: as §1

[1] = Human immunodeficiency virus 1, MT4, HIV-infected MT-4 cells, MTT method, 4 or 5 days at 37° C., read-out: ED50 (the source's name)
[2] = Human immunodeficiency virus 1, MT4, read-out: ED50

CCc1c(C(=O)c2cc(C)cc(C)c2)n(CC2CCC2)c(=O)[nH]c1=O [Example 11, 1-(Cyclobutyl)methyl-5-ethyl-6-(3,5-dimethylbenzoyl)-2,4-pyrimidinedione]
EC50 (HIV; [1]): 2.7 ng/mL (≈ 0.00793 µM) | CD50 (mock-infected MT-4 cells): 89.1 µg/mL | melting point: 200 to 202 °C

Cc1cc(C)cc(C(=O)c2c(C(C)C)c(=O)[nH]c(=O)n2CC2CCC2)c1 [Example 12, 1-(Cyclobutyl)methyl-5-isopropyl-6-(3,5-dimethylbenzoyl)-2,4-pyrimidinedione]
EC50 (HIV; [1]): 2.7 ng/mL (≈ 0.00762 µM) | CD50 (mock-infected MT-4 cells): 8.5 µg/mL | melting point: 171 to 173 °C

CCc1c(C(=O)c2cc(C)cc(C)c2)n(CC2CCCCC2)c(=O)[nH]c1=O [Example 17, 1-(Cyclohexyl)methyl-5-ethyl-6-(3,5-dimethylbenzoyl)-2,4-pyrimidinedione]
EC50 (HIV; [2]): 13 ng/mL (≈ 0.0353 µM) | CD50 (mock-infected MT-4 cells): 7.10 µg/mL | melting point: 177 to 179 °C

Cc1cc(C)cc(C(=O)c2c(C(C)C)c(=O)[nH]c(=O)n2CC2CCCCC2)c1 [Example 18, 1-(Cyclohexyl)methyl-5-isopropyl-6-(3,5-dimethylbenzoyl)-2,4-pyrimidinedione]
EC50 (HIV; [2]): 13 ng/mL (≈ 0.034 µM) | CD50 (mock-infected MT-4 cells): 8.00 µg/mL | melting point: 160 to 162 °C

CCc1c(C(=O)c2cc(C)cc(C)c2)n(Cc2ccccc2)c(=O)[nH]c1=O [Example 23, 1-Benzyl-5-ethyl-6-(3,5-dimethylbenzoyl)-2,4-pyrimidine-dione]
EC50 (HIV; [1]): 1.6 ng/mL (≈ 0.00441 µM) | CD50 (mock-infected MT-4 cells): 8.00 µg/mL | melting point: 202 to 204 °C

Cc1cc(C)cc(C(=O)c2c(C(C)C)c(=O)[nH]c(=O)n2Cc2ccccc2)c1 [Example 24, 1-Benzyl-5-isopropyl-6-(3,5-dimethylbenzoyl)-2,4-pyrimidinedione]
EC50 (HIV; [1]): 0.9 ng/mL (≈ 0.00239 µM) | CD50 (mock-infected MT-4 cells): 5.20 µg/mL | melting point: 188 to 190 °C

CCc1c(Sc2cc(C)cc(C)c2)n(Cc2cccc(OC)c2)c(=O)[nH]c1=O [Example 25, 1-(3-Methoxybenzyl)-5-ethyl-6-(3,5-dimethylphenyl)thio-2,4-pyrimidinedione]
EC50 (HIV; [1]): 3 ng/mL (≈ 0.00757 µM) | CD50 (mock-infected MT-4 cells): 9.04 µg/mL | melting point: 130 to 131 °C

COc1cccc(Cn2c(Sc3cc(C)cc(C)c3)c(C(C)C)c(=O)[nH]c2=O)c1 [Example 26, 1-(3-Methoxybenzyl)-5-isopropyl-6-(3,5-dimethylphenyl)thio-2,4-pyrimidinedione]
EC50 (HIV; [1]): 3 ng/mL (≈ 0.00731 µM) | CD50 (mock-infected MT-4 cells): 9.53 µg/mL | melting point: 135 to 137 °C

CCc1c(Oc2cc(C)cc(C)c2)n(Cc2cccc(OC)c2)c(=O)[nH]c1=O [Example 27, 1-(3-Methoxybenzyl)-5-ethyl-6-(3,5-dimethylphenoxy)-2,4-pyrimidinedione]
EC50 (HIV; [1]): 14 ng/mL (≈ 0.0368 µM) | CD50 (mock-infected MT-4 cells): 10.68 µg/mL | melting point: 133 to 135 °C

COc1cccc(Cn2c(Oc3cc(C)cc(C)c3)c(C(C)C)c(=O)[nH]c2=O)c1 [Example 28, 1-(3-Methoxybenzyl)-5-isopropyl-6-(3,5-dimethylphenoxy)-2,4-pyrimidinedione]
EC50 (HIV; [1]): 6 ng/mL (≈ 0.0152 µM) | CD50 (mock-infected MT-4 cells): 30.60 µg/mL | melting point: 158 to 159 °C

CCc1c(C(=O)c2cc(C)cc(C)c2)n(Cc2cccc(OC)c2)c(=O)[nH]c1=O [Example 29, 1-(3-Methoxybenzyl)-5-ethyl-6-(3,5-dimethylbenzoyl)-2,4-pyrimidinedione]
EC50 (HIV; [1]): 3 ng/mL (≈ 0.00764 µM) | CD50 (mock-infected MT-4 cells): 7.22 µg/mL | melting point: 185 to 187 °C

COc1cccc(Cn2c(C(=O)c3cc(C)cc(C)c3)c(C(C)C)c(=O)[nH]c2=O)c1 [Example 30, 1-(3-Methoxybenzyl)-5-isopropyl-6-(3,5-dimethylbenzoyl)-2,4-pyrimidinedione]
EC50 (HIV; [1]): 2 ng/mL (≈ 0.00492 µM) | CD50 (mock-infected MT-4 cells): 3.83 µg/mL | melting point: 184 to 186 °C

CCc1c(Sc2cc(C)cc(C)c2)n(Cc2ccc(OC(F)(F)F)cc2)c(=O)[nH]c1=O [Example 31, 1-(4-Trifluoromethoxybenzyl)-5-ethyl-6-(3,5-dimethylphenyl)thio-2,4-pyrimidinedione]
EC50 (HIV; [1]): 17 ng/mL (≈ 0.0377 µM) | CD50 (mock-infected MT-4 cells): 4.86 µg/mL | melting point: 138 to 140 °C

Cc1cc(C)cc(Sc2c(C(C)C)c(=O)[nH]c(=O)n2Cc2ccc(OC(F)(F)F)cc2)c1 [Example 32, 1-(4-Trifluoromethoxybenzyl)-5-isopropyl-6-(3,5-dimethylphenyl)thio-2,4-pyrimidinedione]
EC50 (HIV; [1]): 17 ng/mL (≈ 0.0366 µM) | CD50 (mock-infected MT-4 cells): 8.99 µg/mL | melting point: 124 to 126 °C

CCc1c(Oc2cc(C)cc(C)c2)n(Cc2ccc(OC(F)(F)F)cc2)c(=O)[nH]c1=O [Example 33, 1-(4-Trifluoromethoxybenzyl)-5-ethyl-6-(3,5-dimethyl-phenoxy)-2,4-pyrimidinedione]
EC50 (HIV; [1]): 69 ng/mL (≈ 0.159 µM) | CD50 (mock-infected MT-4 cells): >100.00 µg/mL | melting point: 148 to 150 °C

Cc1cc(C)cc(Oc2c(C(C)C)c(=O)[nH]c(=O)n2Cc2ccc(OC(F)(F)F)cc2)c1 [Example 34, 1-(4-Trifluoromethoxybenzyl)-5-isopropyl-6-(3,5-dimethylphenoxy)-2,4-pyrimidinedione]
EC50 (HIV; [1]): 45 ng/mL (≈ 0.1 µM) | CD50 (mock-infected MT-4 cells): 8.06 µg/mL | melting point: 173 to 175 °C

CCc1c(C(=O)c2cc(C)cc(C)c2)n(Cc2ccc(OC(F)(F)F)cc2)c(=O)[nH]c1=O [Example 35, 1-(4-Trifluoromethoxybenzyl)-5-ethyl-6-(3,5-dimethylbenzoyl)-2,4-pyrimidinedione]
EC50 (HIV; [1]): 4 ng/mL (≈ 0.00896 µM) | CD50 (mock-infected MT-4 cells): 33.83 µg/mL | melting point: 155 to 157 °C

Cc1cc(C)cc(C(=O)c2c(C(C)C)c(=O)[nH]c(=O)n2Cc2ccc(OC(F)(F)F)cc2)c1 [Example 36, 1-(4-Trifluoromethoxybenzyl)-5-isopropyl-6-(3,5-dimethyl-benzoyl)-2,4-pyrimidinedione]
EC50 (HIV; [1]): 5 ng/mL (≈ 0.0109 µM) | CD50 (mock-infected MT-4 cells): 7.88 µg/mL | melting point: 79 to 81 °C

CCc1c(Sc2cc(C)cc(C)c2)n(Cc2ccccc2C#N)c(=O)[nH]c1=O [Example 37, 1-(2-Cyanobenzyl)-5-ethyl-6-(3,5-dimethylphenyl)thio-2,4-pyrimidinedione]
EC50 (HIV; [1]): 43 ng/mL (≈ 0.11 µM) | CD50 (mock-infected MT-4 cells): >100.00 µg/mL | melting point: 221 to 223 °C

Cc1cc(C)cc(Sc2c(C(C)C)c(=O)[nH]c(=O)n2Cc2ccccc2C#N)c1 [Example 38, 1-(2-Cyanobenzyl)-5-isopropyl-6-(3,5-dimethylphenyl)-thio-2,4-pyrimidinedione]
EC50 (HIV; [1]): 82 ng/mL (≈ 0.202 µM) | CD50 (mock-infected MT-4 cells): >100.00 µg/mL | melting point: 238 to 240 °C

CCc1c(Oc2cc(C)cc(C)c2)n(Cc2ccccc2C#N)c(=O)[nH]c1=O [Example 39, 1-(2-Cyanobenzyl)-5-ethyl-6-(3,5-dimethylphenoxy)-2,4-pyrimidinedione]
EC50 (HIV; [1]): 619 ng/mL (≈ 1.65 µM) | CD50 (mock-infected MT-4 cells): 60.47 µg/mL | melting point: 267 to 270 °C

Cc1cc(C)cc(Oc2c(C(C)C)c(=O)[nH]c(=O)n2Cc2ccccc2C#N)c1 [Example 40, 1-(2-Cyanobenzyl)-5-isopropyl-6-(3,5-dimethylphenoxy)-2,4-pyrimidinedione]
EC50 (HIV; [1]): > 100000 ng/mL | CD50 (mock-infected MT-4 cells): >100.00 µg/mL | melting point: 276 to 278 °C

CCc1c(C(=O)c2cc(C)cc(C)c2)n(Cc2ccccc2C#N)c(=O)[nH]c1=O [Example 41, 1-(2-Cyanobenzyl)-5-ethyl-6-(3,5-dimethylbenzoyl)-2,4-pyrimidinedione]
EC50 (HIV; [1]): 3 ng/mL (≈ 0.00774 µM) | CD50 (mock-infected MT-4 cells): 2.56 µg/mL | melting point: 257 to 259 °C

Cc1cc(C)cc(C(=O)c2c(C(C)C)c(=O)[nH]c(=O)n2Cc2ccccc2C#N)c1 [Example 42, 1-(2-Cyanobenzyl)-5-isopropyl-6-(3,5-dimethylbenzoyl)-2,4-pyrimidinedione]
EC50 (HIV; [1]): 5 ng/mL (≈ 0.0125 µM) | CD50 (mock-infected MT-4 cells): >100.00 µg/mL | melting point: 250 to 253 °C

CCc1c(Sc2cc(C)cc(C)c2)n(Cc2cccc(C#N)c2)c(=O)[nH]c1=O [Example 43, 1-(3-Cyanobenzyl)-5-ethyl-6-(3,5-dimethylphenyl)thio-2,4-pyrimidinedione]
EC50 (HIV; [2]): 15 ng/mL (≈ 0.0383 µM) | CD50 (mock-infected MT-4 cells): 1.77 µg/mL | melting point: 179 to 181 °C

Cc1cc(C)cc(Sc2c(C(C)C)c(=O)[nH]c(=O)n2Cc2cccc(C#N)c2)c1 [Example 44, 1-(3-Cyanobenzyl)-5-isopropyl-6-(3,5-dimethylphenyl)thio-2,4-pyrimidinedione]
EC50 (HIV; [2]): 8 ng/mL (≈ 0.0197 µM) | CD50 (mock-infected MT-4 cells): 8.88 µg/mL | melting point: 186 to 188 °C

CCc1c(Oc2cc(C)cc(C)c2)n(Cc2cccc(C#N)c2)c(=O)[nH]c1=O [Example 45, 1-(3-Cyanobenzyl)-5-ethyl-6-(3,5-dimethylphenoxy)-2,4-pyrimidinedione]
EC50 (HIV; [2]): 61 ng/mL (≈ 0.162 µM) | CD50 (mock-infected MT-4 cells): >100.00 µg/mL | melting point: 213 to 214 °C

Cc1cc(C)cc(Oc2c(C(C)C)c(=O)[nH]c(=O)n2Cc2cccc(C#N)c2)c1 [Example 46, 1-(3-Cyanobenzyl)-5-isopropyl-6-(3,5-dimethylphenoxy)-2,4-pyrimidinedione]
EC50 (HIV; [2]): 23 ng/mL (≈ 0.0591 µM) | CD50 (mock-infected MT-4 cells): 9.20 µg/mL | melting point: 160 to 162 °C

CCc1c(C(=O)c2cc(C)cc(C)c2)n(Cc2cccc(C#N)c2)c(=O)[nH]c1=O [Example 47, 1-(3-Cyanobenzyl)-5-ethyl-6-(3,5-dimethylbenzoyl)-2,4-pyrimidinedione]
EC50 (HIV; [2]): 3 ng/mL (≈ 0.00774 µM) | CD50 (mock-infected MT-4 cells): 2.53 µg/mL | melting point: 206 to 207 °C

Cc1cc(C)cc(C(=O)c2c(C(C)C)c(=O)[nH]c(=O)n2Cc2cccc(C#N)c2)c1 [Example 48, 1-(3-Cyanobenzyl)-5-isopropyl-6-(3,5-dimethylbenzoyl)-2,4-pyrimidinedione]
EC50 (HIV; [2]): 3 ng/mL (≈ 0.00747 µM) | CD50 (mock-infected MT-4 cells): 8.07 µg/mL | melting point: 202 to 204 °C

From patent publication US6987114B1, “Antiviral pyrimidinedione derivatives and process for the preparation thereof” (Samjin Pharmaceutical Co., Ltd, priority 1999, dated 2006)
